Data from the METLIN SMRT retention time set (Domingo-Almenara et al. 2019).

Test: gradient 5% acetonitrile 3 min, to 50% in 2 min, to 85% in 15 min, held 3 min, 100 µL/min
Conditions: column: Zorbax Extend-C18 2.1 x 50 mm; eluents: water / acetonitrile, 0.1% formic acid
Outline: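 Values are retention times taken from adduct peaks that software picked and an analyst inspected. The pure standards were run as mixtures of ~100 molecules on HPLC linked to a quadrupole time-of-flight mass spectrometer, in positive and negative ionization mode. A Zorbax Extend-C18 column (2.1 × 50 mm, 1.8 μm) was used at 100 μL/min with water and acetonitrile, each including 0.1% formic acid.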

SMILES: CCCN1C(=O)c2ccccc2Sc2cc(-c3noc(CNC(=O)c4cccs4)n3)ccc21
- RP-LC retention time: 999 s

SMILES: CC(C)c1cc(=O)n(CC(=O)NCCn2nc(-c3cccs3)ccc2=O)cn1
- RP-LC retention time: 619 s

SMILES: CSc1ccc(CNC(=O)c2cc3n(n2)CCCN(Cc2ccccc2)C3=O)cc1
- RP-LC retention time: 895 s

SMILES: COc1ccc(NC(=O)Nc2cccc(-c3ccc(N4CCOCC4)nn3)c2)cc1
- RP-LC retention time: 658 s

SMILES: O=C(Nc1ccccc1F)N1CC(Oc2cccc(-c3nc(-c4ccccc4)no3)c2)C1
- RP-LC retention time: 1140 s

SMILES: CN(CCc1noc(-c2ccc(F)cc2)n1)C(=O)Nc1ccc(F)cc1F
- RP-LC retention time: 874 s

SMILES: CCN(CC)S(=O)(=O)c1cc(-c2nc(C(C)(C)C)cs2)cs1
- RP-LC retention time: 1350 s

SMILES: COc1ccc(NC(=O)C(C)C2CCN(C(=O)Nc3ccccc3)CC2)cc1Cl (stereo not given)
- RP-LC retention time: 850 s

SMILES: CC(C)n1cnc2cc(CNC(=O)c3cc(F)ccc3F)ccc21
- RP-LC retention time: 610 s

SMILES: COc1ccc(OC)c(S(=O)(=O)NCc2c(-c3ccccc3)nc3sc(C)nn23)c1
- RP-LC retention time: 839 s

SMILES: O=C(Cn1c(=O)cc(-c2nc(C3CC3)no2)c2ccccc21)NCc1cccs1
- RP-LC retention time: 882 s

SMILES: COC1CCC12CCN(C(=O)c1conc1C)CC2 (stereo not given)
- RP-LC retention time: 679 s

SMILES: Cc1nc2cc(-c3noc(COc4ccc(Cl)cc4)n3)ccc2o1
- RP-LC retention time: 1060 s

SMILES: CCn1ccc(C(=O)N(CC2CCCO2)c2nc3c(C(C)C)cccc3s2)n1 (stereo not given)
- RP-LC retention time: 1370 s

SMILES: Cc1ccc(CNC(=O)C2(C)Cn3nc(C(=O)NCCN4CCCC4)cc3C(=O)N2C)cc1 (stereo not given)
- RP-LC retention time: 608 s

SMILES: Cc1nc(-c2ccc3c(c2)CCN3C(=O)COc2ccc(F)cc2)cs1
- RP-LC retention time: 960 s

SMILES: O=C(NCc1ccc(Br)cc1)C1CCN(c2cncnc2N2CCCC2)CC1
- RP-LC retention time: 704 s

SMILES: O=C(Cc1csc2nc(-c3ccccc3)cn12)NCc1ccc2c(c1)OCO2
- RP-LC retention time: 744 s

SMILES: CCC(=O)Nc1ccc(C2(C(=O)NCC(C)C)CCCCC2)cc1
- RP-LC retention time: 859 s

SMILES: CC(C)S(=O)(=O)c1ccc(Cc2nnc(NC(=O)C3=COCCO3)o2)cc1
- RP-LC retention time: 616 s

SMILES: O=C(c1cn2cc(Cl)ccc2n1)N1CCN(c2ccccc2)CC1
- RP-LC retention time: 804 s

SMILES: CCC(=O)OCCN1C(=O)c2cccc3c(N4CCCCC4)ccc(c23)C1=O
- RP-LC retention time: 1170 s

SMILES: CCn1cc(-c2nc(CC(=O)Nc3cc(F)ccc3F)cs2)c2cccnc21
- RP-LC retention time: 1020 s

SMILES: NC(=O)C(=O)c1cn(Cc2ccccc2)c2ccccc12
- RP-LC retention time: 872 s

SMILES: CCOC(=O)CN1N=C(C(=O)N2CCC(C)CC2)S(=O)(=O)c2ccccc21
- RP-LC retention time: 888 s

SMILES: CCc1ccc(NC(=O)c2cn(-c3cc(-c4nc(CC)no4)ccn3)cn2)cc1
- RP-LC retention time: 939 s

SMILES: COc1ccc(-c2c(C(=O)N(C)Cc3ccco3)nc3ccccn23)cc1
- RP-LC retention time: 698 s

SMILES: Cc1ccc(-c2nc(-c3cccc(-c4ccnn4C)c3)no2)cc1C
- RP-LC retention time: 1300 s

SMILES: COC(=O)c1ccc2c(=O)n(-c3ccc(C)cc3)c(N3CCN(c4ccccn4)CC3)nc2c1
- RP-LC retention time: 728 s

SMILES: COc1cc(C2CC(=O)N(CC(=O)NCC3CCCO3)c3ccccc3S2)cc(OC)c1OC (stereo not given)
- RP-LC retention time: 772 s

SMILES: Cc1ccc(C)c(NC(=O)C2CCC(=O)N2S(=O)(=O)c2ccc(C)c(C)c2)c1 (stereo not given)
- RP-LC retention time: 962 s

SMILES: O=C(NCc1ccccn1)c1c[nH]c2ncccc12
- RP-LC retention time: 549 s

SMILES: CCOC(=O)C(C#N)C(=N)C1C(=O)OC2CCCCC21 (stereo not given)
- RP-LC retention time: 839 s

SMILES: COc1ccccc1N1CCN(C(=S)Nc2ccc3nc(N4CCN(C)CC4)cc(C)c3c2)CC1
- RP-LC retention time: 586 s

SMILES: Cc1ccc(-c2csc(NC(=O)CC(C)C)n2)c(C)c1
- RP-LC retention time: 1090 s

SMILES: CC(C)c1ccc(NC(=O)Cn2nc(C(=O)N3CCCC3)c3ccccc32)cc1
- RP-LC retention time: 991 s

SMILES: O=C(Nc1ccc(OC(F)(F)F)cc1)C(=O)Nc1ccccc1[N+](=O)[O-]
- RP-LC retention time: 1090 s

SMILES: COc1ccc(-c2noc(C3CC(=O)N(c4cc(C)cc(C)c4)C3)n2)c(OC)c1 (stereo not given)
- RP-LC retention time: 970 s

SMILES: O=c1ccc(-c2ccccc2)nn1CCc1nc(-c2cccc(Br)c2)no1
- RP-LC retention time: 1090 s

SMILES: CSc1cccc(NC(=O)CN2CCC3(CC2)N=C(c2cccc(F)c2)C(=O)N3)c1
- RP-LC retention time: 685 s

SMILES: CC(C)CC(NC(=O)OCc1ccccc1)C(=O)NC(Cc1c[nH]c2ccccc12)C(=O)O (stereo not given)
- RP-LC retention time: 926 s

SMILES: O=C(c1ccc(Cn2cncn2)cc1)N1CCc2ccccc2C1
- RP-LC retention time: 687 s

SMILES: COC[C@@H]1CN(S(=O)(=O)c2ccccc2C)C[C@H]1c1ccccn1
- RP-LC retention time: 637 s

SMILES: COCCNC(=O)c1ccc(-n2nc(C)c3c2CCCC3=O)cc1
- RP-LC retention time: 633 s

SMILES: Cc1ccc(C)c(Cn2nc3c(S(=O)(=O)N4CCCCCC4)cccn3c2=O)c1
- RP-LC retention time: 1050 s

SMILES: CC(NC(=O)C1(c2ccc(NS(C)(=O)=O)cc2)CCCCC1)c1ccccc1 (stereo not given)
- RP-LC retention time: 926 s

SMILES: CC(C)NC(=O)c1cn(-c2ccc(-c3nc(C(C)(C)C)no3)cn2)cn1
- RP-LC retention time: 970 s

SMILES: Cc1cc(N2CCOCC2)n2nc(CN3CCN(c4ccccc4C)CC3)nc2n1
- RP-LC retention time: 636 s

SMILES: CCC(C)NC(=O)N1CC=C(c2cn(C(C)C)c3ncccc23)CC1 (stereo not given)
- RP-LC retention time: 821 s

SMILES: Cc1ccc(-c2nc3cnccn3c2Nc2cccc(Cl)c2C)cc1
- RP-LC retention time: 1080 s

SMILES: O=C(NC1CCCCC1)c1ccc(CN2CCN(Cc3ccccc3)C(=O)C2=O)cc1
- RP-LC retention time: 787 s

SMILES: Cc1ccc(-c2nnc(N3CCC(C(=O)N4CCC5(CC4)OCCO5)CC3)o2)cc1
- RP-LC retention time: 755 s

SMILES: Nc1cc(C2CCN(C(=O)c3ccc(F)c(Cl)c3)CC2)no1
- RP-LC retention time: 712 s

SMILES: O=C(c1ccsc1)N1CC(Oc2ccc(-c3nc(-c4ccccc4)no3)cc2)C1
- RP-LC retention time: 1120 s

SMILES: Cc1ncn(CC(=O)Nc2cc(F)ccc2F)c(=O)c1C
- RP-LC retention time: 658 s

SMILES: O=C(Nc1cccc(Cl)c1)N1CCc2[nH]cnc2C1c1ccncc1 (stereo not given)
- RP-LC retention time: 572 s

SMILES: Cc1cc(=O)n(CC(=O)Nc2ccccc2F)c(N2CCCCC2)n1
- RP-LC retention time: 649 s

SMILES: CCS(=O)(=O)N1CCOc2ccc(NC(=O)COC)cc2C1
- RP-LC retention time: 654 s

SMILES: CC1=C(c2ccc(Cl)cc2)S(=O)(=O)N=C1N1CCCN(C(=O)C2CCOC2)CC1 (stereo not given)
- RP-LC retention time: 733 s

SMILES: O=C(NCC(c1cccnc1)N1CCOCC1)c1ccccc1 (stereo not given)
- RP-LC retention time: 522 s

SMILES: COC(=O)C1=CN(C2CC2)c2cc(N3CCCCC3)c(F)cc2S1(=O)=O
- RP-LC retention time: 932 s

SMILES: COc1ccc(OC)c(S(=O)(=O)N2CCCC(C(=O)NCc3ccccc3)C2)c1 (stereo not given)
- RP-LC retention time: 841 s

SMILES: CCN1CCN(c2cc(C)c3cc(NC(=O)Cc4cccs4)ccc3n2)CC1
- RP-LC retention time: 578 s

SMILES: CCCn1nnc(NCc2ccc(-c3cc(Cl)ccc3Cl)o2)n1
- RP-LC retention time: 1180 s

SMILES: O=C1c2cccc(NCCCNCCO)c2C(=O)c2cccc(NCCCNCCO)c21
- RP-LC retention time: 583 s

SMILES: COc1ccc(NC(=O)C(=O)c2cccn2C)c(OC)c1
- RP-LC retention time: 976 s

SMILES: COc1ccc(NS(=O)(=O)c2c(C)nn(-c3ccc(-c4ccc(C)cc4)nn3)c2C)cc1F
- RP-LC retention time: 999 s

SMILES: CCOc1ccc2c(n1)CCN(C(=O)NCCOC)C2
- RP-LC retention time: 624 s

SMILES: COC(=O)CNC(=O)N1Cc2ccccc2OC2(CCN(C(C)C)CC2)C1
- RP-LC retention time: 595 s

SMILES: CCOc1ccccc1NC(=O)C1CCN(S(=O)(=O)c2cn(CC)cn2)CC1
- RP-LC retention time: 784 s

SMILES: CSc1ccc(CNC(=O)c2ccc3ncnc(N4CCCC4)c3c2)cc1
- RP-LC retention time: 669 s

SMILES: CCN1C(=O)c2ccccc2Oc2ccc(C(=O)NCc3cccs3)cc21
- RP-LC retention time: 911 s

SMILES: N#Cc1cccc(C(=O)N2CCOc3ccccc32)c1
- RP-LC retention time: 843 s

SMILES: O=S(=O)(NC1CCCCC1)c1ccc(-c2nnc(C3CC3)o2)o1
- RP-LC retention time: 940 s

SMILES: CCCN1CCN(C(=O)C2CCCN(c3nnc4ccc(C(F)(F)F)cn34)C2)CC1 (stereo not given)
- RP-LC retention time: 510 s

SMILES: Cc1cnc(CCNC(=O)NCC(C)C)n1C1CCCCCC1
- RP-LC retention time: 588 s

SMILES: CCCCOc1ccc(-c2cc3c(N4CCN(c5ccccn5)CC4)nccn3n2)cc1
- RP-LC retention time: 822 s

SMILES: N#Cc1ccc(C(=O)Nc2nnc(CSc3ccccc3)o2)cc1
- RP-LC retention time: 749 s

SMILES: CN(CC1CCOC1)C(=O)Cc1ccc(Cl)cc1 (stereo not given)
- RP-LC retention time: 741 s

SMILES: O=C(NCc1ccccc1)N1CCN(c2ccc(-c3cccs3)nn2)CC1
- RP-LC retention time: 639 s

SMILES: CN(C)CCN(C(=O)CN1C(=O)c2ccccc2C1=O)c1nc2ccc(Cl)cc2s1
- RP-LC retention time: 616 s

SMILES: CCOC(=O)c1c(S(=O)(=O)N2CCC(C(=O)NCc3ccc(C)o3)CC2)c(C)n(C)c1C
- RP-LC retention time: 764 s

SMILES: Cn1cccc(C(=O)N2CCC(CNC(=O)c3ccc(Cl)s3)CC2)c1=O
- RP-LC retention time: 610 s

SMILES: O=C(NCCc1cccs1)C1CCN(C(=O)c2ncn3c2COC(c2ccccc2)C3)CC1 (stereo not given)
- RP-LC retention time: 738 s

SMILES: COc1ccc2[nH]c(=O)c(CCC(=O)N(C)CCc3ccncc3)cc2c1
- RP-LC retention time: 589 s

SMILES: CC(C)c1ccc(CNC(=O)c2cn3c(n2)CCCC3)cc1
- RP-LC retention time: 675 s

SMILES: COc1ccccc1N1CCN(c2cc(SCC(=O)Nc3ccc(F)cc3C)ncn2)CC1
- RP-LC retention time: 959 s

SMILES: COc1cccc(-c2cc(=O)n3c4ccccc4n(CC(=O)NCc4ccco4)c3n2)c1
- RP-LC retention time: 864 s

SMILES: Cc1cccc(CNC(=O)C2CCCN2S(=O)(=O)c2cc3c(cc2Cl)NC(=O)CO3)c1 (stereo not given)
- RP-LC retention time: 868 s

SMILES: Cc1ccc(S(=O)(=O)N2CCc3c(c(-c4nnc(-c5ccccc5F)o4)nn3C)C2)cc1Cl
- RP-LC retention time: 1040 s
